Results on six molecules are retold here after patent US20250290915A1, “METHOD FOR PREDICTING RESPONSIVENESS TO THERAPY” (CANCERTAIN LIMITED, priority 2022, published 2025).

Common to all, as to format: cell-based, human
Assay [1] relates to Circulating tumour cells (CTCs) from a patient with GI cancer (Cholangio Carcinoma, stage 4). The assay is described as follows: Drug response score assay on blood sample, Example 9. Further details: key to Drug response score from blood sample, conc. 1 / Drug response score from blood sample, conc. 2 / Drug response score from blood sample, conc. 3 / Drug response score from blood sample, conc. 4: normalized drug response metric per Gupta et al. 2020. The settings on record: for Drug sensitivity as calculated by the assay, Blood: interpretation based on Drug Response Scores; for Drug sensitivity as calculated by the assay, Blood / Drug response score from blood sample, conc. 1 / Drug response score from blood sample, conc. 2 / Drug response score from blood sample, conc. 3 / Drug response score from blood sample, conc. 4: blood sample; for effectiveness on Circulating Tumour Cells under laboratory conditions: GI cancer (Cholangio Carcinoma) blood sample; for Drug response score from blood sample, conc. 1: conc. 1 of each drug as in Table 27; for Drug response score from blood sample, conc. 1 / Drug response score from blood sample, conc. 2 / Drug response score from blood sample, conc. 3 / Drug response score from blood sample, conc. 4: t96h; for Drug response score from blood sample, conc. 2: conc. 2 of each drug as in Table 27; for Drug response score from blood sample, conc. 3: conc. 3 of each drug as in Table 27; for Drug response score from blood sample, conc. 4: conc. 4 of each drug as in Table 27. The protocol: (§1) CD45^+ cells and circulating tumour cells (CTCs) were isolated from a blood sample provided by each subject.
(§2) CD45 separation was performed by adding human CD45 microbeads (50 μl/ml blood), incubating for 15 minutes at 4° C. and then processing using an AutoMACS machine. This separates the blood sample into CD45^+ and CD45^−cells in 2 separate falcons. The falcon tubes are then centrifuged at 1200 rpm for 5 minutes.
The supernatant was removed from the CD45^+falcon tube, and the cells resuspended in DMEM with 2 μl Cell Tox, 2 μl MT and 2 μl MT. 20 μl of the resuspended CD45^+ cells was then plated in each well which will contain an immunotherapy treatment.
(§3) The supernatant was removed from the CD45^−falcon tube, and the CD45^−cells contacted with 100 μl of FcR block and 100 μl of CD326 (EpCAM) MicroBeads, followed by incubation at […] 4° C. for 30 minutes. The CD45^−cells were then processed using an AutoMACS machine to separate the EpCAM positive and negative cells into 2 separate falcon tubes. The EpCAM-cells were discarded. The supernatant was removed from the EpCAM^+ cells, and the cells resuspended in DMEM with 2 μl Cell Tox, 2 μl MT and 2 μl MT. 20 μl of the resuspended pellet was then added to all sample wells excluding a blank. After all wells are added to, a cell count was conducted on the […] to determine the number of circulating tumour cells (CTCs).
(§4) The different cell types were each divided equally into populations, depending on the number of drugs/concentrations to be tested and plated on a cell-culture plate pre-coated with a scaffold of polycaprolactone (PCL) electrospun fibres and incubated at 37° C., 5% CO2, for 5 to (typically 10) minutes to facilitate cell attachment. After attachment, an initial imaging step was carried out using the RealTime-Glo™ MT assay from Promega (Catalogue No. G9711)) and the CellTox™ Green Cytotoxicity Assay (Promega, Catalogue No. G8741), carried out according to manufacturer's instructions. Following this initial imagining, the immunotherapeutic and/or chemotherapeutic agents were added to the cell populations as indicated below. After 10 minutes, the imagining step was repeated. The cell populations were then incubated at 37° C., 5% CO2 for 48 hours. The imaging step was then repeated. The cell populations were then re-dosed with the same immunotherapeutic and/or chemotherapeutic agents as indicated below, and incubated at 37° C., 5% CO2 for a further 48 hours. After this second 48 hour incubation, the imagining step was repeated for a final time.
(§5) At the end of this culture period, dose response scores were calculated using a normalized drug response metric as described in Gupta et al. (Communications Biology volume 3, Article number: 42 (2020), https://doi.org/10.1038/s42003-020-0765-z). The start readout for a given immunotherapeutic or chemotherapeutic agent at a given concentration was the to readout for said immunotherapeutic or chemotherapeutic agent at a specified concentration. The end readout for a given immunotherapeutic or chemotherapeutic agent at a given concentration was the final timepoint reading (t96h) for said immunotherapeutic or chemotherapeutic agent at a specified concentration.
(§6) The positive control start readout for a given drug/concentration was the to readout for the corresponding drug at a specified concentration. The positive control end readout for the corresponding drug at a specified concentration was the final timepoint reading (t96h) for the corresponding blank well.
(§7) The negative control start and end readouts for a given immunotherapeutic or chemotherapeutic agent at a given concentration were the to and final timepoint reading (t96h) respectively for blank cell or blank immuno cell well respectively.
The sensitivity or resistance of a subject's cancer to a given immunotherapeutic or chemotherapeutic agent was determined based on the calculated drug response score as shown in Table 2. […]

In assay [2] the test system is Cancer Cells from tissue sample (CSCs, tumour marker+ cells) of a patient with GI cancer (Cholangio Carcinoma, stage 4). Kind of assay: Drug response score assay on tissue sample, Example 9. As to conditions: for Drug sensitivity as calculated by the assay, Tissue: interpretation based on Drug Response Scores; for Drug sensitivity as calculated by the assay, Tissue / Drug response score, conc. 1 / Drug response score, conc. 2 / Drug response score, conc. 3 / Drug response score, conc. 4: tissue sample; for effectiveness on Cancer Cells from tissue sample under laboratory conditions: GI cancer (Cholangio Carcinoma) tissue sample; for Drug response score, conc. 1: conc. 1 per Table 27B: Pem 20, Niv 20, Atez 100, Pacli 0.05, Irino 5, Beva 1 μg/ml, Len 50, 5-FU 250 ng/ml; for Drug response score, conc. 2: conc. 2 per Table 27B: Pem 40, Niv 40, Atez 200, Pacli 0.1, Irino 10, Beva 2 μg/ml, Len 100, 5-FU 500 ng/ml; for Drug response score, conc. 3: conc. 3 per Table 27B: Pem 100, Niv 80, Atez 400, Pacli 0.2, Irino 25, Beva 4 μg/ml, Len 200, 5-FU 1000 ng/ml; for Drug response score, conc. 4: conc. 4 per Table 27B: Pem 160, Niv 160, Atez 800, Pacli 1, Irino 50, Beva 8 μg/ml, Len 400, 5-FU 2000 ng/ml. Here is the method: Where a tissue sample was provided by each subject, cancer stem cells (CSCs, CD133^+), were isolated from said sample. Tumour marker cells were further isolated from each tissue sample. The remaining cells were designated tumour marker^+ cells.
First, disaggregation of the tissue samples was carried out. Disaggregation was dependent on the size of the tissue sample and the method of retrieval: • EBUS (Endobronchial Ultrasound Scan and Biopsy)—very small fragments of tissue in solution-spun at 1200 rpm for 5 minutes to collect tissue pellet • Bronchoscopy-larger fragments with larger amount of blood vessels • Broncho-lavage-similar to EBUS, spun at 1200 rpm for 5 minutes to collet tissue pellet
Once a pellet of tissue obtained, DMEM added to the tissue pellet and the material forced through a […] Smart strainer. Once a cell suspension was achieved, this was spun at 1200 rpm for 5 minutes and the supernatant removed. The cells were then resuspended to a volume of 60 μl.
20 μl of FcR block and 20 μl of CD133 microbeads were added to the resuspended cells, followed by incubation for 15 minutes at 4° C. The cells were then processed using an AutoMACS machine. This separates the […] into CD133^+ and CD133^− cells in 2 separate falcons. The falcon tubes are then centrifuged at 1200 rpm for 5 minutes.
The supernatant was removed from the CD133+falcon tube, and the cells resuspended in DMEM with 2 μl Cell Tox, 2 μl MT and 2 μl MT. 20 μl of the resuspended […] was then plated in each well which will contain an immunotherapy treatment.
The supernatant was removed from the CD133^− falcon tube, and the CD133^− cells contacted with 40 μl of a tumour separation microbeads cocktail containing microbeads bound to anti-CD31, anti-CD45, anti-Glycophorin-A (Gly-A) and an anti-fibroblast antibody.
This cocktail is used to separate out tumour marker cells using MACS, by separating out CD31^+, CD45^+ and Gly-A^+ cells. In addition, anti-fibroblast antibody-labelled beads are also used. The cocktail is added to the CD133^− falcon tube, followed by incubation for 15 minutes at 4° C. MACS is carried out using an AutoMACS machine. This cells which are not bound by the CD31, CD45, Gly-A and anti-fibroblast antibody beads are the tumour marker^+ cells.
as §4
At the end of this culture period, dose response scores were calculated using a normalized drug response metric as described in Gupta et al. (Communications Biology volume 3, Article number: 42 (2020), https://doi.org/10.1038/s42003-020-0765-z). The start readout for a given immunotherapeutic or chemotherapeutic agent at a given concentration was the to readout for said immunotherapeutic or chemotherapeutic agent at a specified concentration. […]

Assay [3] concerns Circulating Tumour Cells (CTCs) from a patient with colon cancer (sigmoid colon cancer). Kind of assay: Drug response score assay on CTCs from blood, Example 8. Further details: key to Drug response score, conc. 1 / Drug response score, conc. 2 / Drug response score, conc. 3 / Drug response score, conc. 4: normalized drug response metric (Gupta et al. 2020). As to conditions: for Drug response score, conc. 1: conc. 1 of each drug as in Table 24; for Drug response score, conc. 1 / Drug response score, conc. 2 / Drug response score, conc. 3 / Drug response score, conc. 4: CTCs, t96h; for Drug response score, conc. 2: conc. 2 of each drug as in Table 24; for Drug response score, conc. 3: conc. 3 of each drug as in Table 24; for Drug response score, conc. 4: conc. 4 of each drug as in Table 24; for Drug sensitivity as calculated by the assay (interpretation of Drug Response Scores): Table 26. The protocol:
as §1, §2, §3
as §4, with “After” for “The different cell types were each divided equally into populations, depending on the number of drugs/concentrations to be tested and plated on a cell-culture plate pre-coated with a scaffold of polycaprolactone (PCL) electrospun fibres and incubated at 37° C., 5% CO2, for 5 to (typically 10) minutes to facilitate cell attachment. After”
as §5, §6, §7
The sensitivity or resistance of a subject's cancer to a given immunotherapeutic or chemotherapeutic agent was determined based on the calculated drug response score as shown in Table 2.
Blood samples from a patient with colon cancer (sigmoid colon cancer) were received on 8 Mar. 2022 and tested using a 9 drug panel.
Chemotherapeutic agents were tested as in Table 24.

Regarding `O=c1[nH]cc(F)c(=O)[nH]1` [5FU], in assay [1], the “Drug sensitivity as calculated by the assay, Blood” value is recorded as “S+”. Further, the “Drug sensitivity as calculated by the assay, Tissue” value in assay [2] is recorded as “S+”.

For `O=c1[nH]cc(F)c(=O)[nH]1` [5 FluoroUracil], in assay [1], the “effectiveness on Circulating Tumour Cells under laboratory conditions” value was “S+”; the “Drug response score from blood sample, conc. 1” value was 0.4147; the “Drug response score from blood sample, conc. 2” value stood at 0.341; the “Drug response score from blood sample, conc. 3” value is 0.422. Moreover, in assay [1], the “Drug response score from blood sample, conc. 4” value is recorded as 0.08131. Besides, in assay [2], the “effectiveness on Cancer Cells from tissue sample under laboratory conditions” value is given as “S+”; the “Drug response score, conc. 1” value stood at 0.9334; the “Drug response score, conc. 2” value is recorded as 0.9488; the “Drug response score, conc. 3” value came to 0.9924. In addition, the “Drug response score, conc. 4” value in assay [2] is reported as 0.01222.

In the case of Bevacizumab, in assay [1], the “Drug response score from blood sample, conc. 1” value is reported as 0.4605; the “Drug response score from blood sample, conc. 2” value came out at 1.257; the “Drug response score from blood sample, conc. 3” value is on record as 1.837; the “Drug response score from blood sample, conc. 4” value is 2.21. For the same molecule, in assay [2], the “Drug response score, conc. 1” value was determined as 0.93; the “Drug response score, conc. 2” value is 0.9294; the “Drug response score, conc. 3” value is reported as 0.932; the “Drug response score, conc. 4” value was 0.9261.

On to Atezolizumab, for which, in assay [1], the “effectiveness on Circulating Tumour Cells under laboratory conditions” value is “S++”; the “Drug response score from blood sample, conc. 1” value came out at 0.1037; the “Drug response score from blood sample, conc. 2” value came to 0.1499; the “Drug response score from blood sample, conc. 3” value came out at 0.3493. Further, in assay [1], the “Drug response score from blood sample, conc. 4” value is on record as 0.4391 and the “Drug sensitivity as calculated by the assay, Blood” value was “S++”. Further, in assay [2], the “effectiveness on Cancer Cells from tissue sample under laboratory conditions” value is reported as “S+”; the “Drug sensitivity as calculated by the assay, Tissue” value is on record as “S+”; the “Drug response score, conc. 1” value was determined as 0.8904; the “Drug response score, conc. 2” value came to 0.9047. For the same molecule, in assay [2], the “Drug response score, conc. 3” value worked out at 0.8647 and the “Drug response score, conc. 4” value was 0.7954.

`Cn1nnc2c(C(N)=O)ncn2c1=O` [Temozolamide]: in assay [3], the “Drug response score, conc. 1” value is −1.0000; the “Drug response score, conc. 2” value was determined as 0.0367; the “Drug response score, conc. 3” value is recorded as −0.1421; the “Drug response score, conc. 4” value is listed as −0.4687. The “Drug sensitivity as calculated by the assay (interpretation of Drug Response Scores)” value in assay [3] (sigmoid colon cancer CTCs) is recorded as “Sensitive (S++)”.

With `Nc1nc2[nH]cc(CCc3ccc(C(=O)N[C@@H](CCC(=O)O)C(=O)O)cc3)c2c(=O)[nH]1` [Pemetrexed], in assay [3], the “Drug response score, conc. 1” value came to 5.1780; the “Drug response score, conc. 2” value was −1.0000; the “Drug response score, conc. 3” value is reported as −1.0000; the “Drug response score, conc. 4” value was −1.0000. In addition, in assay [3] (sigmoid colon cancer CTCs), the “effectiveness on Circulating Tumour Cells under laboratory conditions” value is on record as “S+++” and the “Drug sensitivity as calculated by the assay (interpretation of Drug Response Scores)” value is “Sensitive (S+++)”.
